Data on 2 molecules can be found in patent publication US6300344A, “Heterocyclic compounds” (Fujisawa Pharmaceutical Co., Ltd., priority 1995, dated 2001).

Structures can show the parent of a compound that is named as a salt.

This experiment deals with human platelet aggregation induced by ADP. Nature of the experiment: Inhibition of human platelet aggregation induced by ADP. Particulars: test compound 1.0 × 10^-7 M; human platelet rich plasma; ADP 2.5 μM final; 37° C.; mean ± S.E. The class given is cell-based. On the procedure: Inhibition of human platelet aggregation induced by ADP
The citrate blood was centrifuged at 150 ×g for 10 minutes and the platelet rich plasma (PRP) was removed. The remaining blood was centrifuged for a further 10 minutes at 1500 ×g to prepare the platelet poor plasma (PPP), which was used as a reference for platelet aggregation. […] 25 μl of sample solution and 225 μl of PRP were mixed and stirred at 1000 rpm for 2 minutes at 37° C. Aggregation was induced by ADP solution at the final concentration of 2.5 μM.

In turn, `O=C(O)COc1cccc(CC2CCCCC=C2c2nc(-c3ccccc3)c(-c3ccccc3)o2)c1` (centres unmarked) [Test Compound (1), Sodium [3-[[2-(4,5-diphenyloxazol-2-yl)-2-cyclohepten-1-yl]methyl]phenoxy]acetate] had an inhibition at 0.1 µM of 88 ± 0.5%.

`O=C(O)COc1cccc2c1CCC[C@H]2N1CCC[C@@H]1c1nc(-c2ccccc2)c(-c2ccccc2)o1` [Test Compound (2), Sodium salt of (1R)-1-((2R)-2-(4,5-diphenyloxazol-2-yl)pyrrolidin-1-yl]-5-carboxymethoxy-1,2,3,4-tetrahydronaphthalene] returned an inhibition at 0.1 µM of 85 ± 7.6%.

In general, inhibition refers to the change of the read-out against control, counted positive when it falls. A low value points to a weak effect.
